The source of these data is patent publication US20210174908A1, “CLASSIFICATION OF TUMOR MICROENVIRONMENTS” (Oncxerna Therapeutics, Inc., priority 2019, published 2021).

One assay relates to MDSC. The note with it: pre-clinical models; cited from earlier work.
Assay [1] relates to patients with gastric cancer. Briefly: Retrospective population-based TME classification of gastric cancer patients who received pembrolizumab (n = 45), RECIST response. Type of assay: in vivo, human. The note with it: for Class response rate: population-based classifier. An excerpt: The analysis included 45 gastric cancer tumor samples.
The ORR for all patients was 27% (12/45). […] When the patients were retrospectively analyzed and placed in the Class IA, the response rate was 80%; and in Class IS, the response rate was 18%.

The test system of another assay is gastric cancer. Put plainly: ANN classifier applied to pembrolizumab monotherapy gastric cancer data, threshold / probability score optimization. The class given is in vivo, human. The text has this: Sensitivity refers to the number of true biomarker responders divided by number of actual responders; specificity refers to the number of true biomarker non-responders divided by number of actual non-responders; PPV refers to the number of true biomarker responders divided by number of total predicted biomarker responders (how well the biomarker-positive rating performs); and NPV—refers to the number of true biomarker non-responders divided by number of total predicted biomarker non-responders (how well the biomarker-negative rating performs).

Assay [2] deals with HER2 negative metastatic breast cancer, NSCLC, hepatocellular carcinoma. The note with it: with paclitaxel (HER2 negative metastatic breast cancer), paclitaxel-carboplatin (advanced NSCLC), sorafenib (hepatocellular carcinoma), docetaxel (non-squamous NSCLC); cited from earlier work.
The subject of a further assay is solid tumors. Put plainly: Navicixizumab Phase 1A dose-escalation trial, retrospective Z-score and ANN biomarker analysis (n = 39). Type of assay: in vivo, human. The note with it: for Patients with benefit (SD or better): gynecological cancers. The method, then:
A retrospective data analysis of a Phase 1A dose-escalation trial for patients with solid tumors. […] Patients with the above cancers had biopsies collected. Exploratory predictive biomarkers such as DLL4 and VEGF were measured in FFPE tumor specimens, either archived or fresh core needle biopsied at study entry (2 FFPE cores were preferred whenever possible) by immunohistochemistry. […] In the biomarker-positive subset, 48% achieved SD or better.
Model performance is tabulated in TABLE 40; and abbreviations and definitions are as follows; ACC is accuracy; AUC ROC is area under the receiving operator characteristic curve; Sensitivity is the number of true biomarker responders divided by number of actual responders; Specificity is the number of true biomarker non-responders divided by number of actual non-responders; PPV is positive predictive value, i.e., number of true biomarker responders divided by number of total predicted biomarker responders; NPV is negative predictive value, i.e., number of true biomarker non-responders divided by number of total predicted biomarker non-responders.

On to `CCCc1nn(C)c2c(=O)[nH]c(-c3cc(S(=O)(=O)N4CCN(C)CC4)ccc3OCC)nc12` [sildenafil], for which the “Effect on MDSC functions” value in the assay on MDSC is on record as “significantly inhibited the MDSC functions”.
For the molecule Pembrolizumab, the “ORR (CR + PR) or class response rate” value is reported as 12/45 (27%) in assay [1] (All (ORR), n = 45); 0/8 (0%) in assay [1] (class A); 8/10 (80%) in assay [1] (class IA); 2/16 (12%) in assay [1] (class ID); 2/11 (18%) in assay [1] (class IS). Also, the CR in assay [1] (All, n = 45, patients/total) is reported as 3/45; in assay [1] (class A, patients/class) it was 0/8; in assay [1] (class IA, patients/class) it was 2/10; in assay [1] (class ID, patients/class) it was 0/16; in assay [1] (class IS, patients/class) it was 1/11. The PD in assay [1] (All, n = 45, patients/total) was 18/45; in assay [1] (class A, patients/class) it was 3/8; in assay [1] (class IA, patients/class), 2/10; in assay [1] (class ID, patients/class) it was 7/16; in assay [1] (class IS, patients/class), 6/11. The PR in assay [1] (All, n = 45, patients/total) is listed as 9/45; in assay [1] (class A, patients/class), 0/8; in assay [1] (class IA, patients/class), 6/10; in assay [1] (class ID, patients/class) it was 2/16; in assay [1] (class IS, patients/class), 1/11. Further, the Class response rate in assay [1] (Class A) is 0%; in assay [1] (Class IA, CR+PR in class / patients in class), 80%; in assay [1] (Class ID), 12%; in assay [1] (Class IS) it was 18%. Further, in assay [1] (all patients, n = 45, CR+PR divided by total number of patients (RECIST)), the “Overall Response Rate (ORR)” value is given as 27%. The “Biomarker positive Overall Response Rate (ORR)” value was 70% in the assay with gastric cancer (Option 1: optimized threshold, both IS and IA groups (10/14)); 80% in the assay on gastric cancer (before threshold optimization). Further, in the assay with gastric cancer (Option 2: optimized threshold, only the IA subgroup (8/8)), the “Biomarker-positive ORR” value is given as 100%.

B1: Bavituximab (antibody, V domains shown)
VH: EVQLQQSGPELEKPGASVKLSCKASGYSFTGYNMNWVKQSHGKSLEWIGHIDPYYGDTSYNQKFRGKATLTVDKSSSTAYMQLKSLTSEDSAVYYCVKGGYYGHWYFDVWGAGTTVTVSS
VL: DIQMTQSPSSLSASLGERVSLTCRASQDIGSSLNWLQQGPDGTIKRLIYATSSLDSGVPKRFSGSRSGSDYSLTISSLESEDFVDYYCLQYVSSPPTFGAGTKLELK
notes: PS-targeting antibody
As to B1, the “Anti-tumor effects in clinical trials” value in assay [2] was “Promising anti-tumor effects”.

B2: Navicixizumab (antibody, chains of the INN, looked up, V domains shown)
VH: QVQLVQSGAEVKKPGASVKISCKASGYSFTAYYIHWVKQAPGQGLEWIGYISNYNRATNYNQKFKGRVTFTTDTSTSTAYMELRSLRSDDTAVYYCARDYDYDVGMDYWGQGTLVTVSS
VL: DIVMTQSPDSLAVSLGERATISCRASESVDNYGISFMKWFQQKPGQPPKLLIYAASNQGSGVPDRFSGSGSGTDFTLTISSLQAEDVAVYYCQQSKEVPWTFGGGTKVEIK
VH2: QVQLVQSGAEVKKPGASVKVSCKASGYTFTNYWMHWVRQAPGQGLEWMGDINPSNGRTSYKEKFKRRVTLSVDKSSSTAYMELSSLRSEDTAVYFCTIHYDDKYYPLMDYWGQGTLVTVSS
VL2: DIVMTQSPDSLAVSLGERATISCRASESVDNYGISFMKWFQQKPGQPPKLLIYAASNQGSGVPDRFSGSGSGTDFTLTISSLQAEDVAVYYCQQSKEVPWTFGGGTKVEIK
notes: anti-VEGF/anti-DLL4 bispecific antibody
Regarding B2, the “Patients achieving SD (Stable Disease) or better (RECIST 1.1)” value in the assay with solid tumors (all-comers biomarker subset, n = 39) is 38%. Besides, in the assay with solid tumors (biomarker-positive subset), the “Patients achieving SD or better” value is on record as 48%. For the same molecule, the “Patients with benefit (SD or better)” value worked out at 0% with solid tumors (biomarker-negative (n=6)) and 58% in the assay with solid tumors (biomarker-positive (n=12)).
